Assay results published in patent publication US20250074920A1, “MACROCYCLIC COMPOUNDS AND USE AS KINASE INHIBITORS” (BLOSSOMHILL THERAPEUTICS, INC., priority 2022, published 2025).

Legend:
Test in all cases: KINOMEscan kinase binding assay
Conditions in all cases: at 1 μM
EPHA4 = tested on: EPHA4
Protocol: (§1) Kinase binding assays were performed at Eurofins/DiscoveRx using the general KINOMEscan Protocol (Fabian, M. A. et al., “A small molecule-kinase interaction map for clinical kinase inhibitors,” Nat. Biotechnol. 2005, 23(3):329-36). For most assays, kinase-tagged T7 phage strains were prepared in an E. coli host derived from the BL21 strain. E. coli were grown to log-phase and infected with T7 phage and incubated with shaking at 32° C. until lysis. The lysates were centrifuged and filtered to remove cell debris. The remaining kinases were produced in HEK-293 cells and subsequently tagged with DNA for qPCR detection. Streptavidin-coated magnetic beads were treated with biotinylated small molecule ligands for 30 minutes at room temperature to generate affinity resins for kinase assays. The liganded beads were blocked with excess biotin and washed with blocking buffer (SeaBlock (Pierce), 1% BSA, 0.05% Tween 20, 1 mM DTT) to remove unbound ligand and to reduce nonspecific binding. Binding reactions were assembled by combining kinases, liganded affinity beads, and test compounds in 1× binding buffer (20% SeaBlock, 0.17×PBS, 0.05% Tween 20, 6 mM DTT). All reactions were performed in polystyrene 96-well plates in a final volume of 0.135 mL. The assay plates were incubated at room temperature with shaking for 1 hour and the affinity beads were washed with wash buffer (1×PBS, 0.05% Tween 20). The beads were then re-suspended in elution buffer (1×PBS, 0.05% Tween 20, 0.5 μM non-biotinylated affinity ligand) and incubated at room temperature with shaking for 30 minutes. The kinase concentration in the eluates was measured by qPCR. Results for compounds tested in this assay at a given concentration are reported as “% Ctrl”, where lower numbers indicate stronger binding in the matrix. % Ctrl was calculated as (test compound signal-positive control signal)/(negative control signal-positive control signal)×100. Dissociation constants (Kds) for test compound-kinase interactions were calculated by measuring the amount of kinase captured on the solid support as a function of the test compound concentration.

KIT(L576P) = tested on: KIT(L576P)
Protocol: as §1

ABL1-phosphorylated = tested on: ABL1-phosphorylated
Protocol: as §1

FYN = tested on: FYN
Protocol: as §1

EPHA3 = tested on: EPHA3
Protocol: as §1

TYRO3 = tested on: TYRO3
Protocol: as §1

FLT4 = tested on: FLT4
Protocol: as §1

TNK2 = tested on: TNK2
Protocol: as §1

PDGFRA = tested on: PDGFRA
Protocol: as §1

AXL = tested on: AXL
Protocol: as §1

TIE1 = tested on: TIE1
Protocol: as §1

LTK = tested on: LTK
Protocol: as §1

BMX = tested on: BMX
Protocol: as §1

EGFR(T790M) = tested on: EGFR(T790M)
Protocol: as §1

ERBB2 = tested on: ERBB2
Protocol: as §1

VEGFR2 = tested on: VEGFR2
Protocol: as §1

FLT3(R834Q) = tested on: FLT3(R834Q)
Protocol: as §1

KIT-autoinhibited = tested on: KIT-autoinhibited
Protocol: as §1

RET(V804M) = tested on: RET(V804M)
Protocol: as §1

[1] = tested on: ABL1(Y253F)-phosphorylated
Protocol: as §1

MST1R = tested on: MST1R
Protocol: as §1

FLT3 = tested on: FLT3
Protocol: as §1

EGFR(S752-1759del) = tested on: EGFR(S752-1759del)
Protocol: as §1

ABL2 = tested on: ABL2
Protocol: as §1

EGFR(E746-A750del) = tested on: EGFR(E746-A750del)
Protocol: as §1

[2] = tested on: EGFR(L747-S752del, P753S)
Protocol: as §1

[3] = tested on: ABL1(F3171)-phosphorylated
Protocol: as §1

[4] = tested on: ABL1(H396P)-phosphorylated
Protocol: as §1

IGF1R = tested on: IGF1R
Protocol: as §1

[5] = tested on: EGFR(L747-E749del, A750P)
Protocol: as §1

FGR = tested on: FGR
Protocol: as §1

ROS1 = tested on: ROS1
Protocol: as §1

EGFR = tested on: EGFR
Protocol: as §1

FLT3(D835H) = tested on: FLT3(D835H)
Protocol: as §1

KIT = tested on: KIT
Protocol: as §1

[6] = tested on: ABL1(T315I)-nonphosphorylated
Protocol: as §1

BRK = tested on: BRK
Protocol: as §1

EPHA2 = tested on: EPHA2
Protocol: as §1

DDR1 = tested on: DDR1
Protocol: as §1

MET = tested on: MET
Protocol: as §1

KIT(V559D, V654A) = tested on: KIT(V559D, V654A)
Protocol: as §1

## C[C@@H]1COCc2nn(C)cc2-c2cc(Cl)c3c(c2)/C(=C/c2[nH]ccc2C(=O)N1)C(=O)N3 [Cpd. 4, [3a(4)Z,10R]-20-chloro-10,15-dimethyl-10,11,13,15-tetrahydro-2H-1,17-(ethanediylidene)pyrazolo[4,3-m]dipyrrolo[3,2-f:3′,4′-i][1,4]oxazacyclopentadecine-3,8(5H,9H)-dione]
EPHA4
  % Ctrl: 92%
KIT(L576P)
  % Ctrl: 100%
ABL1-phosphorylated
  % Ctrl: 90%
FYN
  % Ctrl: 93%
EPHA3
  % Ctrl: 83%
TYRO3
  % Ctrl: 97%
FLT4
  % Ctrl: 100%
TNK2
  % Ctrl: 100%
PDGFRA
  % Ctrl: 96%
AXL
  % Ctrl: 67%
TIE1
  % Ctrl: 84%
LTK
  % Ctrl: 100%
BMX
  % Ctrl: 93%
EGFR(T790M)
  % Ctrl: 90%
ERBB2
  % Ctrl: 100%
VEGFR2
  % Ctrl: 94%
FLT3(R834Q)
  % Ctrl: 100%
KIT-autoinhibited
  % Ctrl: 82%
RET(V804M)
  % Ctrl: 90%
[1]
  % Ctrl: 79%
MST1R
  % Ctrl: 100%
FLT3
  % Ctrl: 100%
EGFR(S752-1759del)
  % Ctrl: 93%
ABL2
  % Ctrl: 97%
EGFR(E746-A750del)
  % Ctrl: 96%
[2]
  % Ctrl: 90%
[3]
  % Ctrl: 98%
[4]
  % Ctrl: 96%
IGF1R
  % Ctrl: 94%
[5]
  % Ctrl: 75%
FGR
  % Ctrl: 100%
ROS1
  % Ctrl: 68%
EGFR
  % Ctrl: 82%
FLT3(D835H)
  % Ctrl: 65%
KIT
  % Ctrl: 100%
[6]
  % Ctrl: 100%
BRK
  % Ctrl: 83%
EPHA2
  % Ctrl: 96%
DDR1
  % Ctrl: 20%
MET
  % Ctrl: 98%
KIT(V559D, V654A)
  % Ctrl: 99%

## Cc1cc2c([nH]1)/C=C1\C(=O)Nc3ccc(cc31)-c1c(nn(C)c1C)OCCCN(C)C2=O [Cpd. 1, [3a(4)Z]-6,9,15,16-tetramethyl-9,10,11,12-tetrahydro-15H-1,17-(ethanediylidene)pyrazolo[4,3-n]dipyrrolo[3,2-g:3′,4′-j][1,5]oxazacyclopentadecine-3,8(2H,5H)-dione]
EPHA4
  % Ctrl: 96%
KIT(L576P)
  % Ctrl: 88%
ABL1-phosphorylated
  % Ctrl: 81%
FYN
  % Ctrl: 91%
EPHA3
  % Ctrl: 86%
TYRO3
  % Ctrl: 100%
FLT4
  % Ctrl: 94%
TNK2
  % Ctrl: 100%
PDGFRA
  % Ctrl: 87%
AXL
  % Ctrl: 85%
TIE1
  % Ctrl: 100%
LTK
  % Ctrl: 74%
BMX
  % Ctrl: 67%
EGFR(T790M)
  % Ctrl: 88%
ERBB2
  % Ctrl: 98%
VEGFR2
  % Ctrl: 93%
FLT3(R834Q)
  % Ctrl: 97%
KIT-autoinhibited
  % Ctrl: 81%
RET(V804M)
  % Ctrl: 100%
[1]
  % Ctrl: 92%
MST1R
  % Ctrl: 100%
FLT3
  % Ctrl: 92%
EGFR(S752-1759del)
  % Ctrl: 88%
ABL2
  % Ctrl: 87%
EGFR(E746-A750del)
  % Ctrl: 95%
[2]
  % Ctrl: 100%
[3]
  % Ctrl: 64%
[4]
  % Ctrl: 96%
IGF1R
  % Ctrl: 100%
[5]
  % Ctrl: 100%
FGR
  % Ctrl: 91%
ROS1
  % Ctrl: 91%
EGFR
  % Ctrl: 100%
FLT3(D835H)
  % Ctrl: 96%
KIT
  % Ctrl: 91%
[6]
  % Ctrl: 83%
BRK
  % Ctrl: 92%
EPHA2
  % Ctrl: 97%
DDR1
  % Ctrl: 97%
MET
  % Ctrl: 84%
KIT(V559D, V654A)
  % Ctrl: 100%
